# “Also recorded” adds a separate entry of the source.
# Legend:
# Namalwa cells = experiment: CellTiter-Glo cell viability, Namalwa cells; format: cell-based; conditions: 72 h, 10 nM-10 μM, co-dosed 1:1 with CRBN ligand 8047, compared to monomer alone
# Method: (§1) All cell lines were purchased from ATCC or DSMZ and grown at 37° C. with 5% C02. Human HeLa cells were cultured in complete growth medium (Dulbecco's modified Eagle's medium (DMEM) supplemented with 10% FBS); MCF7 cells were cultured in complete growth medium (Dulbecco's modified Eagle's medium (DMEM) supplemented with 10% FBS and 0.01 mg/ml human recombinant insulin (Sigma Aldrich); Namalwa and MOLM-13 cells were cultured in complete growth medium (RPMI 1640 medium supplemented with 10% FBS); MV-4-11 were cultured in complete growth medium (Iscove's Modified Dulbecco's medium, supplemented with 10% FBS); HCT116 cells were cultured in complete growth medium (McCoy's 5a Medium supplemented with 10% FBS). For cellular degradation of BRD4 studies, cells were seeded in a 12-well plate at 70-80% confluency, allowed to attach overnight, and incubated with the indicated compounds for the indicated time. […]
# CellTiter-Glo® 2.0 Cell Viability Assay (Promega) was carried out following the manufacturer's recommendations. […] After a 72 h incubation, 100 ul of the CellTiter-Glo® substrate was added per well and luminescence was read on a Spectramax M5 (Molecular Devices). […]
# Namalwa cells (1×104) were treated for 72 hours with the compounds solubilized in DMSO. […] Cellular viability was determined using the CellTiter-Glo® Luminescent Cell Viability Assay (Promega) described above. […]
# BRD4 [1] = target: T1, BRD4 (Homo sapiens, UniProt O60885); experiment: CURE-PRO-mediated BRD4 degradation in HeLa cells, Western blot; format: cell-based; set-up: endogenous in cells; host or cells: HeLa; conditions: 24 h
# Method: (§2) All cell lines were purchased from ATCC or DSMZ and grown at 37° C. with 5% C02. Human HeLa cells were cultured in complete growth medium (Dulbecco's modified Eagle's medium (DMEM) supplemented with 10% FBS); MCF7 cells were cultured in complete growth medium (Dulbecco's modified Eagle's medium (DMEM) supplemented with 10% FBS and 0.01 mg/ml human recombinant insulin (Sigma Aldrich); Namalwa and MOLM-13 cells were cultured in complete growth medium (RPMI 1640 medium supplemented with 10% FBS); MV-4-11 were cultured in complete growth medium (Iscove's Modified Dulbecco's medium, supplemented with 10% FBS); HCT116 cells were cultured in complete growth medium (McCoy's 5a Medium supplemented with 10% FBS). For cellular degradation of BRD4 studies, cells were seeded in a 12-well plate at 70-80% confluency, allowed to attach overnight, and incubated with the indicated compounds for the indicated time. When indicated, a 15-minute pretreatment with 10 μM pomalidomide, 10 μM VHL298, 10 μM Nutlin3a, 1 μM MG-132 or 1 μM Carfilzomib was performed before the addition of CURE-PROs. For washout studies, after CURE-PRO treatment, media was aspirated and incubated with complete medium for the indicated time before lysis.
# (§3) Anti-BRD4 (13440, 1:1,000 dilution for Western Blot and 1:25 dilution for ProteinSimple); Anti-BRD2 (5848 1:1,000 dilution for Western Blot and 1:25 dilution for ProteinSimple); β-Actin (3700, 1:2,000 dilution for Western Blot), β-Actin (4970, 1:50 dilution for ProteinSimple) anti-mouse IgG-HRP, and anti-rabbit IgG-HRP antibodies were purchased Cell Signaling Technology. Anti-GAPDH (600-401-A33, 1:100 dilution for ProteinSimple) was purchased from Rockland Immunochemicals, Inc. Anti-BRD3 (sc-81202, 1:200 dilution for Western Blot) was purchased from Santa Cruz Biotechnology.
# HeLa, MCF7, or HCT116 cells (2.5-3×10^6) were treated for 24 hours with the indicated compounds solubilized in DMSO. The cells were washed in ice-cold PBS and were then lysed in RIPA lysis buffer (150 mM NaCl, 5 mM EDTA, 1% NP-40, 0.5% sodium deoxycholate, 0.1% SDS, 50 mM Tris, pH 8.0) with Roche protease inhibitor complete cocktail and phosphatase inhibitors (10 mM sodium fluoride, 10 mM sodium pyrophosphate, 1 mM sodium orthovanadate and 20 mM β-glycerophosphate). The total protein concentrations were determined by Bradford Protein Assay and 10-20 μg of protein was loaded onto 4-15% Tris-Glycine gradient gels (Biorad). After standard gel electrophoresis, the separated proteins were transferred to PVDF membrane by wet transfer. The immunoblots were then blocked for 1 hour in 5% skim milk in TBST or 5% BSA in TBST, according to manufacturer's instructions, before an overnight incubation at 4° C. with indicated antibodies and membranes. Membranes were then incubated with the appropriate horseradish peroxidase-conjugated secondary antibodies (1:5,000 dilution) for 1 h at room temperature and the bands were visualized using the Clarity Max Western ECL Substrate (Biorad) and the ChemiDoc Imaging System (Biorad). Signal was detected with ECL Western Blotting Substrate (Pierce) and X-ray film processed with a Konica SRX-101 X-ray film processor or captured by Bio-Rad's Chemidoc Imaging system.
# HeLa cells (2.5×10^6) were treated for 24 hours with the sample compounds solubilized in DMSO. Compounds were added at 1-10 μM each. Standardized protein samples were electrophoresed and imaged as described in the immunoblotting description above. FIGS. 6-18 depicts the CURE-PRO-mediated BRD4 degradation for BRD monomers (JQ1 derivatives comprising of catechol linkers), and CRBN ligands, 8048 and 8049 (pomalidomide derivatives comprising boronic acid linkers) combined in a 1:1 ratio.
# HeLa cells (2.5×10^6) were treated for 24 hours with the compounds solubilized in DMSO. The compounds were added at 10 μM each. Standardized protein samples were electrophoresed and imaged as described in the immunoblotting section above. […]
# BRD4 [2] = target: T1, BRD4; experiment: CURE-PRO-mediated BRD4 degradation in HeLa cells, WES capillary electrophoresis (ProteinSimple); format: cell-based; set-up: endogenous in cells; host or cells: HeLa; conditions: 4-24 h, 10 μM each, co-dosed with CRBN ligand 8047, washed after 4 h
# Method: as §2, §3
# WES Simple analysis was performed on WES system (ProteinSimple-Biotechne) according to the manufacturer's instructions. Total protein concentrations of cell lysates were determined by the Pierce BCA kit (Thermo Fisher). 3 μL of 0.3 μg/uL of the protein lysate was loaded onto a 12- to 230-kDa WES assay plate (ProteinSimple) where 300 nL sample was withdrawn through a capillary, subjected to electrophoretic separation of proteins by size, and followed by the simultaneous, HRP-based detection of proteins using the Anti-Rabbit Detection Module (Proteinsimple: #DM-001). The electropherograms were checked then the automatic peak detection was manually corrected if it was required.
# HeLa cells (2.5×10^6) were treated for 4-24 hours with the compounds solubilized in DMSO. After 4 hours, indicated points were washed and cells were left in full growth media. Compounds were added at 10 μM each. […]
# BRD4 [3] = target: T1, BRD4; experiment: Summary of E3 ligase directed degradation of BRD4, estimated from Western Blot or WES (Tables 1-6); format: cell-based; set-up: endogenous in cells; host or cells: HeLa, MCF7 or HCT116
# Summary of the method: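 HeLa, MCF7 or HCT116 cells treated 24 h with compounds in DMSO, lysed in RIPA buffer; BRD4 levels read by Western blot (ECL detection) or capillary WES with HRP detection. Check mark denotes 30% to 70% or higher protein degradation.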
# MV-4-11 cells = experiment: CellTiter-Glo cell viability, MV-4-11 cells; format: cell-based; conditions: 1 nM-100 μM, cotreated 1:1 with CRBN ligand 8049
# Method: as §2
# CellTiter-Glo® 2.0 Cell Viability Assay (Promega) was carried out following the manufacturer's recommendations. Cells were seeded at a density of 1000 cells/well in a white 96 well plates (Corning, #3917) in a total volume of 100 μl with respective monomers, combinations of BRD ligands together with E3 ligase ligands or vehicle control treatment. After a 72 h incubation, 100 ul of the CellTiter-Glo® substrate was added per well and luminescence was read on a Spectramax M5 (Molecular Devices). Dose-response curves were generated using Graphpad Prism software.
# MV-4-11 cells (5×104) were treated for 24 hours with the sample compounds solubilized in DMSO. The compounds were added at 1 nM-100 μM each. Cellular viability was determined using the CellTiter-Glo® Luminescent Cell Viability Assay (Promega) described above. FIGS. 19-22 depict the CURE-PRO-mediated loss of cellular viability for BRD monomers (JQ1 derivatives comprising of catechol linkers), and CRBN ligand, 8049 (pomalidomide derivatives comprising boronic acid linkers) combined in a 1:1 ratio.
# MV-4-11 cells (1×104) were treated for 72 hours with the compounds solubilized in DMSO. Compounds were added at 10 nM-100 μM each. Cellular viability was determined using the CellTiter-Glo® Luminescent Cell Viability Assay (Promega) described above. FIGS. 47-54 depict the CURE-PRO-mediated loss of cellular viability for BRD monomers (JQ1 derivatives comprising of boronic acid linkers), and CRBN ligands, 8046, 8047, and 8066 (pomalidomide derivatives comprising diol linkers) combined in a 1:1 ratio.
# SLC19A1 = experiment: Suppression of the c-MYC downstream target gene SLC19A1, RT-PCR in HeLa cells; format: cell-based, Human; conditions: 24 h, 10 μM each
# Method: The suppression of the expression of the downstream c-MYC target, SLC19A1, was measured by RT-PCR using Power SYBR® Green Cells-to-Ct™ Kit (Life Technologies). Adherent cells were plated on 96 well plates at 5,000 cells per well were treated for 24 h with monomer compounds and compounds capable of reversible interactions (1 nM-100 μM). Cells were subsequently washed in ice-cold PBS processed according to the manufacturer's instructions. Quantitative real-time PCR was performed using a ViiA™ 7 Real-time PCR System (Applied Biosystems, Foster City, CA, USA). GAPDH and ACTB served as internal controls. The primers used were (5′-3′): GAPDH-F: AGCCACATCGCTCAGACAC (SEQ ID NO:9), GAPDH-R: GCCCAATACGACCAAATCC (SEQ ID NO:10), ACTB-F: CCAACCGCGAGAAGATGA (SEQ ID NO:11), ACTB-R: […] (SEQ ID NO:12), SLC19A1-F: […] (SEQ ID NO:13), SLC19A1-R: […] (SEQ ID NO:14).
# HeLa cells (1×104) were treated for 24 hours in 96 well plates with the compounds solubilized in DMSO. Compounds were added at 10 μM each and RNA expression measured by the Cells-to Ct method described above (Thermofisher).
# BRD4 [4] = target: T1, BRD4; experiment: BRD protein family degradation in HCT116 cells with MDM2 ligands, Western blot: BRD4; format: cell-based; set-up: endogenous in cells; host or cells: HeLa, MCF7 or HCT116; conditions: 24 h, with MDM2 ligands 8310 / 8312
# Method: as §1
# HeLa, MCF7, or HCT116 cells (2.5-3×10^6) were treated for 24 hours with the indicated compounds solubilized in DMSO. […] The total protein concentrations were determined by Bradford Protein Assay and 10-20 μg of protein was loaded onto 4-15% Tris-Glycine gradient gels (Biorad). […] Signal was detected with ECL Western Blotting Substrate (Pierce) and X-ray film processed with a Konica SRX-101 X-ray film processor or captured by Bio-Rad's Chemidoc Imaging system. […]
smiles,measurement,setting,value
"CCNC(=O)C[C@@H]1N=C(c2ccc(Cl)cc2)c2cc(-c3cccc(B(O)O)c3)ccc2-n2c(C)nnc21 [BRD-E72, (3-((4S)-6-(4-chlorophenyl)-4-(2-(ethylamino)-2-oxoethyl)-1-methyl-4H-benzo[f][1,2,4]triazolo[4,3-a][1,4]diazepin-8-yl)phenyl)boronic acid]",loss of cell viability (CellTiter-Glo),Namalwa cells,the dose-response curves shifted towards the left; also recorded: marked loss in cell viability
same,BRD4 degradation with pomalidomide and the BRD ligand (no 8047),BRD4 [1]; 10 μM,failed to induce BRD4 degradation
same,BRD4 degradation after preincubation with pomalidomide,"BRD4 [1]; 10 μM, 1:1 with CRBN ligand 8047, pomalidomide preincubated 15 min at equimolar concentration",inhibition of CURE-PRO-mediated BRD4 degradation
same,BRD4 degradation,BRD4 [1]; BRD ligand (monomer) alone,no change in expression is observed
same,"BRD4 degradation, time dependence and washout",BRD4 [2],marked BRD4 degradation after 4 h with sustained degradation for up to 8 h after drugs are washed out
same,"Degradation of BRD4, combination with CRBN ligand [drawing 421]","BRD4 [3]; Table 1, CRBN ligand drawn as drawing 421 (by the text apparently 8047)",✓ (A black check mark indicates efficacy of 30% to 70% or higher protein degradation)
CCNC(=O)C[C@@H]1N=C(c2ccc(Cl)cc2)c2cc(OCCNC(=O)c3cccc(O)c3O)ccc2-n2c(C)nnc21 [BRD-N25],toxicity / loss of cellular viability (CellTiter-Glo),MV-4-11 cells,a concentration-dependent loss in cellular viability was observed; also recorded: increased toxicity
same,suppression of SLC19A1 expression,SLC19A1; with MDM2 ligand 8310,a rightward shift in the curve and an increase in the Ct values
same,suppression of SLC19A1 expression,SLC19A1; with MDM2 ligand 8312,a rightward shift in the curve and an increase in the Ct values
same,selectivity of degradation within the BRD protein family,BRD4 [4],some selectivity for BRD3 and BRD4 over BRD2 for 8310
same,"Degradation of BRD4, combination with MDM2 ligand [drawing 463]","BRD4 [3]; Table 5, aryl-boronic acid-containing MDM2 ligand drawn as drawing 463 (apparently 8310)",✓ (A black check mark indicates efficacy of 30% to 70% or higher protein degradation)
same,"Degradation of BRD4, combination with MDM2 ligand [drawing 464]","BRD4 [3]; Table 5, aryl-boronic acid-containing MDM2 ligand drawn as drawing 464 (apparently 8312)",✓ (A black check mark indicates efficacy of 30% to 70% or higher protein degradation)

# From patent US20240000950A1, “THERAPEUTIC CURE-PRO COMPOUNDS FOR TARGETED DEGRADATION OF BET DOMAIN PROTEINS, AND METHODS OF MAKING AND USING THEM” (CORNELL UNIVERSITY, priority 2020, published 2024)
